Measured values taken from the supplement of paper PMC4862054.

Experiments:
Details in all cases: incubation time: 72 h
MDA-MB-453 [1] = assay: normalised viability (% of control), CellTiter-Blue; higher = more viable cells (100 = DMSO, 0 = benzethonium chloride kill control)
Protocol: (§1)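 DSRT, CellTiter-Blue viability, 72 h incubation. Signal is normalised to DMSO and benzethonium chloride controls. Value is the normalised response at dose 1.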

CAL-85-1 [2] = assay: as above
Protocol: as §1

CAL-51 [3] = assay: as above
Protocol: as §1

HCC1937 [4] = assay: as above
Protocol: as §1

MDA-MB-468 [5] = assay: as above
Protocol: as §1

MFM-223 [6] = assay: as above
Protocol: as §1

Hs578T [7] = assay: as above
Protocol: as §1

SK-BR-3 [8] = assay: as above
Protocol: as §1

HCC1143 [9] = assay: as above
Protocol: as §1

BT-549 [10] = assay: as above
Protocol: as §1

MDA-MB-231 [11] = assay: as above
Protocol: as §1

HDQ-P1 [12] = assay: as above
Protocol: as §1

DU-4475 [13] = assay: as above
Protocol: as §1

HCC1599 [14] = assay: as above
Protocol: as §1

CAL-148 [15] = assay: as above
Protocol: as §1

CAL-120 [16] = assay: as above
Protocol: as §1

BT-474 [17] = assay: as above
Protocol: as §1

MDA-MB-436 [18] = assay: as above
Protocol: as §1

MDA-MB-453 [19] = assay: normalised response (% of control), CellTiter-Glo; higher = more viable cells (100 = DMSO, 0 = benzethonium chloride kill control)
Procedure, shortened: (§2)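 Breast cancer cell lines (20 µl suspension) were seeded into 384-well plates holding compound at 5 concentrations in 10-fold steps over a compound-specific 10,000-fold range, then incubated 72 h. CellTox Green fluorescence (485/520 nm) was read first, then CellTiter-Glo luminescence after 10 min at room temperature. Each plate was normalised to 0.1 % DMSO (100) and a positive kill control (0). Each value is the normalised signal at a single concentration of the series.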

CAL-85-1 [20] = assay: as above
Procedure, shortened: as §2

CAL-51 [21] = assay: as above
Procedure, shortened: as §2

HCC1937 [22] = assay: as above
Procedure, shortened: as §2

MDA-MB-468 [23] = assay: as above
Procedure, shortened: as §2

MFM-223 [24] = assay: as above
Procedure, shortened: as §2

Hs578T [25] = assay: as above
Procedure, shortened: as §2

SK-BR-3 [26] = assay: as above
Procedure, shortened: as §2

MCF-10A = assay: as above
Procedure, shortened: as §2

HCC1143 [27] = assay: as above
Procedure, shortened: as §2

BT-549 [28] = assay: as above
Procedure, shortened: as §2

MDA-MB-231 [29] = assay: as above
Procedure, shortened: as §2

HDQ-P1 [30] = assay: as above
Procedure, shortened: as §2

DU-4475 [31] = assay: as above
Procedure, shortened: as §2

HCC1599 [32] = assay: as above
Procedure, shortened: as §2

CAL-148 [33] = assay: as above
Procedure, shortened: as §2

CAL-120 [34] = assay: as above
Procedure, shortened: as §2

BT-474 [35] = assay: as above
Procedure, shortened: as §2

MDA-MB-436 [36] = assay: as above
Procedure, shortened: as §2

Row | SMILES | normalised viability (MDA-MB-453 [1]) [%] | normalised viability (CAL-85-1 [2]) [%] | normalised viability (CAL-51 [3]) [%] | normalised viability (HCC1937 [4]) [%] | normalised viability (MDA-MB-468 [5]) [%] | normalised viability (MFM-223 [6]) [%] | normalised viability (Hs578T [7]) [%] | normalised viability (SK-BR-3 [8]) [%] | normalised viability (HCC1143 [9]) [%] | normalised viability (BT-549 [10]) [%] | normalised viability (MDA-MB-231 [11]) [%] | normalised viability (HDQ-P1 [12]) [%] | normalised viability (DU-4475 [13]) [%] | normalised viability (HCC1599 [14]) [%] | normalised viability (CAL-148 [15]) [%] | normalised viability (CAL-120 [16]) [%] | normalised viability (BT-474 [17]) [%] | normalised viability (MDA-MB-436 [18]) [%] | normalised response (MDA-MB-453 [19]) [%] | normalised response (CAL-85-1 [20]) [%] | normalised response (CAL-51 [21]) [%] | normalised response (HCC1937 [22]) [%] | normalised response (MDA-MB-468 [23]) [%] | normalised response (MFM-223 [24]) [%] | normalised response (Hs578T [25]) [%] | normalised response (SK-BR-3 [26]) [%] | normalised response (MCF-10A) [%] | normalised response (HCC1143 [27]) [%] | normalised response (BT-549 [28]) [%] | normalised response (MDA-MB-231 [29]) [%] | normalised response (HDQ-P1 [30]) [%] | normalised response (DU-4475 [31]) [%] | normalised response (HCC1599 [32]) [%] | normalised response (CAL-148 [33]) [%] | normalised response (CAL-120 [34]) [%] | normalised response (BT-474 [35]) [%] | normalised response (MDA-MB-436 [36]) [%]
1 | Cc1ccc(NC(=O)c2ccc(CN3CCN(C)CC3)cc2)cc1Nc1nc(-c2cccnc2)cs1 [Masitinib] (1 nM) | 98.4 | 92.5 | 100 | 72.1 | 110 | 96.8 | 109 | 93.9 | 89.9 | 119 | 93.4 | 84.1 | 102 | 92.2 | 86.5 | 79.2 | 102 | 91.7 | 110 | 98.7 | 98.9 | 105 | 114 | 102 | 100 | 104 | 96.6 | 100 | 103 | 97.9 | 100 | 103 | 119 | 101 | 95.8 | 96.4 | 100
2 | CN(C)CCOc1ccc(/C(=C(/CCCl)c2ccccc2)c2ccccc2)cc1 [Toremifene] (1 nM) | 112 | 90.9 | 104 | 142 | 113 | 104 | 106 | 102 | 97.7 | 113 | 101 | 107 | 107 | 105 | 108 | 83.5 | 114 | 126 | 119 | 98.4 | 114 | 96.2 | 106 | 103 | 110 | 111 | 107 | 98.5 | 104 | 106 | 98.6 | 103 | 106 | 104 | 103 | 102 | 98.7
3 | c1ccc2c(CCNc3ccc(Nc4ccncc4)cc3)c[nH]c2c1 [Serdemetan] (1 nM) | 99.2 | 85.3 | 110 | 95.9 | 105 | 82.8 | 97.5 | 95 | 86.3 | 106 | 98.5 | 99.9 | 95.2 | 92.4 | 107 | 79 | 99.8 | 104 | 112 | 101 | 114 | 93.9 | 98.8 | 98.8 | 99.2 | 104 | 86.1 | 98.5 | 102 | 97.1 | 96.7 | 95.7 | 115 | 91 | 96.8 | 93.8 | 86.4
4 | COc1cc(OC2CCN(C)CC2)ccc1Nc1ncc2c(n1)n(C1CCCC1)c(=O)n2C [AZ 3146] (1 nM) | 94.3 | 114 | 92.4 | 95.2 | 105 | 109 | 89.2 | 107 | 128 | 84.3 | 92.2 | 88.3 | 98.8 | 126 | 109 | 116 | 98.9 | 103 | 112 | 99.7 | 101 | 95.9 | 101 | 98.2 | 93.7 | 98.3 | 94.2 | 98.9 | 107 | 102 | 98.4 | 90.9 | 125 | 101 | 105 | 95.5 | 85.8
